# Experimental data from patent publication US7767648B2, “Tissue specific prodrugs” (priority 2000, dated 2010).
# What was measured:
# [1] = test system: TSU prostate cancer cell line; experiment: Killing of non-PSMA producing TSU prostate cancer cell line; type: cell-based, human
# Description: The prodrugs are hydrolyzed by PSMA and release the corresponding Asp- or Glu-containing TG analogs or the TG analog itself, and also lack potent cytotoxicity when not metabolized by PSMA. Non-PSMA producing TSU-Pr1 human prostate cancer cell line is exposed to each of the prodrugs at doses that are approximately 50-times the LD50 for the corresponding free TG analog. Against the TSU prostate cancer cell line, 12ADT-Glu has an LD50 value for killing of ˜50 nM.
# PSMA = PSMA (Homo sapiens, UniProt Q04609); experiment: Hydrolysis of methotrexate analog substrates by purified PSMA (HPLC); type: biochemical
# Chain of PSMA (Q04609 whole entry): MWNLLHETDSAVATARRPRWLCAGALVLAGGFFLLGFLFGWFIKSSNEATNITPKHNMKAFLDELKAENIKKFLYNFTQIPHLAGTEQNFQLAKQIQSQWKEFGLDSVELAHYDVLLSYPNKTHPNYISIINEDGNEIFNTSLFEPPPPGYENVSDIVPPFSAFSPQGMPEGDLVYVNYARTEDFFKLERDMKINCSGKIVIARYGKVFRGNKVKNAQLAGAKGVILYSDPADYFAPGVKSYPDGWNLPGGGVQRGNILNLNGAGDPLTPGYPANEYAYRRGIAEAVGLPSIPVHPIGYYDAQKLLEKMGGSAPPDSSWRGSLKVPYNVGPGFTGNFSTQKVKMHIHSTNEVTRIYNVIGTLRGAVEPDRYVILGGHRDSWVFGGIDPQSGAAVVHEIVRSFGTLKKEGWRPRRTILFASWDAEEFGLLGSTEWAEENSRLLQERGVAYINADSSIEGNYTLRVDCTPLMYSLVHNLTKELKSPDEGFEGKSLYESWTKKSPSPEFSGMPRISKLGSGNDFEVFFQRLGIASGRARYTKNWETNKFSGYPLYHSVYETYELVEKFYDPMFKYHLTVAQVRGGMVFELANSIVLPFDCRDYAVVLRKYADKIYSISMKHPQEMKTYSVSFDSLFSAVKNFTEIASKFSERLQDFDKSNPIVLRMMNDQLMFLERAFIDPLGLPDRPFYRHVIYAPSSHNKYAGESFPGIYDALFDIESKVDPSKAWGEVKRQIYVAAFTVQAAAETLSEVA
# Description: The extent to which various peptide substrates are hydrolyzed by PSMA was determined by synthesizing a series of methotrexate analogs including the 4-N[N-2,4-diamino-6-pteridinyl-methyl)-N-methylamino-benzoate] (APA) portion of methotrexate coupled to a variety of peptides. Poly-glutamated methotrexate is available from Schirks Laboratories in Jona, Switzerland.
# A series of α-linked peptides were investigated for PSMA hydrolysis. […] In Tables 1-3, to simplify identification of the type of amino acid linkages employed, α-linkages are denoted by a hyphen (for example, Glu-Glu) and all side-chain linkages are denoted by a star (for example, Glu*Glu).
# Substrate specificity for the pteroyl poly-γ-glutamyl carboxypeptidase (folate hydrolase) activity of PSMA was determined by synthesizing a series of γ-linked methotrexate analogs and assaying them for hydrolysis by PSMA.
# (§1) In Tables 1-3, to simplify identification of the type of amino acid linkages employed, α-linkages are denoted by a hyphen (for example, Glu-Glu) and all side-chain linkages are denoted by a star (for example, Glu*Glu). The column labeled “% PSMA Hydrolysis” refers to the percentage of hydrolysis of a substrate to APA-Asp or to APS-Glu by purified PSMA. The column labeled “% APA-Asp or -Glu” refers to the percentage of hydrolysis of substrate to APA-Asp or APA-Glu. The column labeled “% Prodrug Remaining” refers to the area of the HPLC peak attributable to starting material divided by the areas of HPLC peaks attributable to starting material, intermediate products, and final products. […] “ND” means “not determined,” in that the experiment was not performed.
# [2] = Stability of PSMA substrates in human plasma, 18 hour incubation, HPLC; type: in vitro ADME; settings: 18 hour incubation in human plasma
# Excerpt: (§2) In order that the prodrugs can be administered systemically via the blood, their stability in sera must be sufficiently high to avoid hydrolysis or other degradative processes which may occur prior to the prodrugs reaching their target tissues. In addition to GGH activity, a human blood plasma glutamate carboxypeptidase (PGCP) that has significant sequence homology to PSMA and glutamate carboxypeptidase activity has been identified. Therefore, to assay hydrolysis by GGH and other serum carboxypeptidases like PGCP, the APA-Glu*Glu*Glu*Glu*Asp, APA-Glu*Glu*Glu*Glu*Gln, and APA-Glu*Glu*Glu*Glu*Glu substrates were incubated in human and mouse plasma and hydrolysis determined by HPLC analysis after an 18-hour incubation, as shown in Table 3. As noted, GGH efficiently hydrolyzes poly-γ-glutamate chains as well as poly-γ-glutamated folate and methotrexate. GGH, however, is unable to hydrolyze α-linked peptides.
# as §1
# [3] = Stability of PSMA substrates in mouse plasma, 18 hour incubation, HPLC; type: in vitro ADME; settings: 18 hour incubation in mouse plasma
# Excerpt: as §2, §1
# TSU cancer cell line = experiment: Inhibition of clonogenic survival of TSU cells in presence or absence of exogenous PSMA; type: cell-based; settings: exogenous PSMA 10 micrograms/mL, FIG. 4
# Description: FIG. 4 is a graph of the percentage inhibition of clonogenic survival of TSU cells exposed to various concentrations of APA-Glu*Glu*Glu*Glu*Asp in the presence or absence of PSMA.
# The methotrexate analog sequence APA-Glu*Glu*Glu*Glu*Asp was contacted with the non-PSMA producing TSU cancer cell line in various amounts. Exogenous PSMA (10 micrograms/mL) was added to the media and the percent inhibition of clonogenic survival was monitored.
Compound,LD50 value for killing [1],"% hydrolysis after 24 hours (PSMA; Table 2, γ-linked analogs, incubated with PSMA 24 hours)","% hydrolysis after 48 hours (PSMA; Table 2, γ-linked analogs, incubated with PSMA 48 hours)","% PSMA hydrolysis 24 h (PSMA; Table 3, hydrolysis of substrate to APA-Asp or APA-Glu by purified PSMA, 24 h)","% PSMA hydrolysis 48 h (PSMA; Table 3, hydrolysis of substrate to APA-Asp or APA-Glu by purified PSMA, 48 h)",hydrolysis by PSMA (in words) (PSMA; text summary of the tables),"remaining at 18 h ([2]; HPLC peak area of starting material over all peaks, read-out: % Prodrug Remaining)",% APA-Glu or -Asp ([2]; hydrolysis of substrate to APA-Asp or APA-Glu),% APA-Glu or -Asp [3],"selectivity, percent inhibition of clonogenic survival with versus without PSMA (TSU cancer cell line)"
8-O-(12-[L-glutamylamino]-dodecanoyl)-8-O-debutanoylthapsigargin [12ADT-Glu],approximately 50 nM,,,,,,,,,
CN(Cc1cnc2nc(N)nc(N)c2n1)c1ccc(C(=O)N[C@@H](CCC(=O)N[C@@H](CCC(=O)N[C@@H](CCC(=O)N[C@@H](CCC(=O)N[C@@H](CC(=O)O)C(=O)O)C(=O)O)C(=O)O)C(=O)O)C(=O)O)cc1 [APA-Glu*Glu*Glu*Glu*Asp],,40.9%,77.7%,98%,100%,to a greater extent after 24 hours than any of the γ-linked dipeptide analogs,20%,9%,72%,there is selectivity
